What was measured:
[1] = test system: transcriptional activity through STAT6 activation by IL4 stimulation; assay: Test of inhibitory action in mouse air pouch model introduced with E9 cells (blood PLAP activity after IL4 stimulation); assay type: in vivo, CDF1 mouse; details: orally administered 20 mg/kg, 1 hour before IL4 injection into air pouch; plasma 24 hours after IL4
Experimental: 5% cytodex3 (Amersham Bioscience, 17-0485-01) solution and 2% CMC solution (Daiichi Kogyo Seiyaku Co., Ltd.) were prepared. More specifically, 5 g of cytodex3 was suspended in 100 ml of PBS (SIGMA, R8537) and sterilized by autoclaving. On the other hand, the 2% CMC solution was prepared by adding 2 g of CMC in 100 ml of PBS while stirring with a stirrer bar and followed by sterilization by autoclaving.
Then, E9 cells were subjected to trypsin-EDTA treatment to be removed from the wall of the vessel and the cells were suspended in DMEM to make 1.0×10^6 cells/ml. 0.2 g of cytodex3 was mixed with 1.0×10^7 cells/ml of E9 cells. More specifically, 4 ml of 5% cytodex3 solution was mixed with 10 ml of 1.0×10^6 cells/ml of cell suspension. Then, the cell/cytodex3 suspension was inoculated on a non-tissue culture plate (IWAKI, SH90-15) and cultured in a CO2 incubator. […]
After 24 hours, orbital blood drawing was conducted using a heparin-treated Terumo hematocrit capillary tube (TERUMO Corporation, VC-H075H). […] To inactivate endogenous alkaline phosphatase, the plasma sample was treated in a hot water bath at 65° C. for 10 minutes and then PLAP activity derived from E9 cells in the plasma was measured. […] Subsequently, while shielding light, the mixture was incubated at room temperature for 1 hour, followed by measurement of intensity of chemiluminescence using a plate reader (Perkin Elmer, ARVO).

[2] = test system: transcriptional activity through STAT6 activation by IL4 stimulation; details: in vitro; cited from earlier work
[3] = test system: E9 cell (HEK293 with STAT6-PLAP reporter plasmid and STAT6-expression vector plasmid); assay: PLAP activity in culture supernatant of cells stably expressing STAT6-PLAP reporter plasmid and STAT6 expression vector plasmid upon human IL4 stimulation; assay type: cell-based; details: human IL4 final concentration 1 ng/ml, next day
Experimental: More specifically, the cloned cell was subjected to trypsin-EDTA treatment to be removed from the wall of the vessel and suspended in DMEM and cells were inoculated on a 96-well cell culture plate to be 1.0×10^4 cells/190 μl/well. On the next day, 10 μl of 20 ng/ml human IL4 (Calbiochem, 407635) was added to the culture medium at a final concentration of 1 ng/ml. On the next day, the culture supernatant was recovered and the PLAP activity in the culture supernatant was measured.
More specifically, 100 μl of PLAP buffer (0.28 M Na2CO3—NaHCO3 pH 10.0, 8 mM MgSO4) was added to a black plate for ELISA (Sumitomo Bakelite Co., Ltd., No. MS-8496K), and 10 μl of the culture supernatant which had been treated in a hot water bath at 65° C. for 10 minutes was added thereto. Then, 50 μl of Lumi-Phos 530 (Lumigen, Inc.) was added, followed by mixing. Subsequently, while shielding light, the mixture was incubated at room temperature for 1 hour, followed by measurement of intensity of chemiluminescence using a plate reader (Perkin Elmer, ARVO). […] Hereinafter, this clone is named E9 cell.

[4] = test system: E9 cells (STAT6-PLAP reporter); assay: Mouse air pouch model introduced with E9 cells: plasma PLAP activity upon human IL4 stimulation; assay type: in vivo, CDF1 mouse; details: 1 ml of 3 ng/ml human IL4 injected into air pouch, plasma after 24 hours
Experimental: 5% cytodex3 (Amersham Bioscience, 17-0485-01) solution and 2% carboxymethylcellulose (hereinafter, also referred to as CMC) solution (Daiichi Kogyo Seiyaku Co., Ltd.) were prepared. More specifically, 5 g of cytodex3 was suspended in 100 ml of PBS (SIGMA, R8537) and sterilized in an autoclave. On the other hand, the 2% CMC solution was prepared by adding 2 g of CMC in 100 ml of PBS while stirring with a stirrer bar, followed by sterilization in the autoclave.
Then, the E9 cells were subjected to trypsin-EDTA treatment to be removed from the wall of the vessel and the cells were suspended in DMEM to be 1.0×10^6 cells/ml. 0.2 g of cytodex3 was mixed with 1.0×10^7 cells/ml E9 cells. More specifically, 4 ml of 5% cytodex3 solution was added to 10 ml of 1.0×10^6 cells/ml cell suspension. […]
Under anesthesia with diethyl ether (WAKO, 055-01155), 3 ml of air was introduced under the skin on the back of a CDF1 mouse (Charles River Japan) using a 5-ml syringe with a 27 G needle to make an air pouch. […] To inactivate endogenous alkaline phosphatases, the plasma sample was treated in a hot water bath at 65° C. for 10 minutes and then the PLAP activity derived from E9 cells in the plasma was measured. […] Subsequently, while shielding light, the mixture was incubated at room temperature for 1 hour, followed by measurement of intensity of chemiluminescence using a plate reader (Perkin Elmer, ARVO).

Molecule	suppression of the PLAP activity activated by the IL4 stimulation as compared with the control group [1] [%]	inhibition of transcriptional activity through STAT6 activation by IL4 stimulation [2]	PLAP activity in culture supernatant upon IL4 stimulation compared to non-stimulating condition [3]	PLAP activity secreted in blood upon IL4 stimulation [4]
Cl.Cl.Cl.Fc1ccc(-c2n[nH]cc2-c2ccc3ncc(-c4nccs4)n3c2)cc1 [test compound, 2-(6-[3-(4-fluorophenyl)-1H-4-pyrazolyl]imidazo[1,2-a]pyridin-3-yl)-1,3-thiazole trihydrochloride]	94.1	inhibit transcriptional activity through STAT6 activation		
IL4: human IL4 (Calbiochem, 407635), used as stimulus of STAT6-PLAP reporter cells (protein, UniProt P05112 25-153, looked up) Interleukin-4: HKCDITLQEIIKTLNSLTEQKTLCTELTVTDIFAASKNTTEKETFCRAATVLRQFYSHHEKDTRCLGATAQQFHRHKQLIRFLKRLDRNLWGLAGLNSCPVKEANQSTLENFLERLKTIMREKYSKCSS			higher PLAP activity was induced	remarkable increase of PLAP activity
